Target: T1, ARNO (Sec7PH construct) (Homo sapiens, UniProt Q99418)
T1 construct: BIG1^DcbHusSec7 (2-888) and ARNO^Sec7PH (50-399); made in house
T1 sequence (Q99418 50-399 isoform Q99418-2): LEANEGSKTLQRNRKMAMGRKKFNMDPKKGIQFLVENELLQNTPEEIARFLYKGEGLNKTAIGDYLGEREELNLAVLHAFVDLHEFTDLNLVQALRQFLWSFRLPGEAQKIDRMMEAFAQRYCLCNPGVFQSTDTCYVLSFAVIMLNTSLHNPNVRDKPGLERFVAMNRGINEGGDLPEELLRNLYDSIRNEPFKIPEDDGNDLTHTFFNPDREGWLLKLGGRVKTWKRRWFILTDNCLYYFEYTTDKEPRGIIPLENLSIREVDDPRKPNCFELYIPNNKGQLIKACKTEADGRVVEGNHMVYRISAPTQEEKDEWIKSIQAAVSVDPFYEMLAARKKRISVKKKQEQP
Assay: Nucleotide exchange kinetics on liposomes, activation of myristoylated Arf1
Type: biochemical
Details: 50 μM
Description: The effect of Bragsin1 on the GEF efficiency of representative human ArfGEFs was evaluated by fluorescence kinetics using highly purified recombinant Arf GTPases and ArfGEFs. In a first series of assays, the Sec7 domains of BIG1, a Golgi ArfGEF, and of ARNO, EFA6a and BRAG2, which function at the plasma membrane, were used. When tested in solution, Bragsin1 had no effect on the activation of Arf1 by any of these Sec7 domains (FIGS. 2a and 14). Separately, we reconstituted the activation of myristoylated Arf1 by the same ArfGEFs on liposomes using ArfGEF constructs that contain a membrane-binding domain (DCB-HUS domain for BIG1, PH domains for the other GEFs). […] BRAG2 activates several Arf isoforms, including the plasma membrane-located Arf6 isoform. […] Bragsin1 and Bragsin2 have the same IC50 towards BRAG2 ([…]) according to dose-response analysis, confirming that Bragsin1 and Bragsin2 can be used interchangeably (FIG. 2d). The specific inhibition of BRAG2 by Bragsin in vitro predicts that BRAG2 silencing by siRNA should yield the same phenotype as treatment by the small molecule. Silencing of BRAG2 induced the redistribution of TGN46 into tubular or punctate structures, which phenocopied the effects induced by Bragsin (FIGS. 2e, 17 and 18). […] Silencing of ARNO, which is located at the plasma membrane, had no effect on TGN46 distribution. Overexpression of BRAG2-mCherry rescued the dispersion of the TGN46 structure induced by Bragsin, which is consistent with the silencing experiments (FIG. 2f). Bragsin is a specific inhibitor of the ArfGEF BRAG2 in vitro and in cells according to these experiments. These oexperiments identify a mechanism of inhibition that requires the membrane to manifests itself.
Bovine Δ17Arf1 and human Δ13Arf6, full-length myristoylated Arf1 and Arf6, human BRAG2^Sec7 (390-594) and BRAG2^Sec7PH (390-811), human EFA6^Sec7 (527-727) and EFA6^Sec7PHCt (527-1024), ARNO^Sec7 (50-256), BIG1^Sec7 (691-889), BIG1^DcbHusSec7 (2-888) and ARNO^Sec7PH (50-399) were expressed and purified as in (Benabdi, S. et al. Family-wide Analysis of the Inhibition of Arf Guanine Nucleotide Exchange Factors with Small Molecules: Evidence of Unique Inhibitory Profiles. Biochemistry 56, 5125-5133 (2017)) and references therein. BRAG2^Sec7PH mutants were purified as the wild type protein. Purification of human full-length Rac1 carrying a 6xHis tag in C-terminus and human TRIO^DH1PH1 (1232-1550) was described in (Peurois, F. et al. Characterization of the activation of small GTPases by their GEFs on membranes using artificial membrane tethering. Biochem J 474, 1259-1272 (2017)).
Lipids (of natural origin) were from Avanti Polar Lipids, except NBD-PE from Sigma. Liposomes were prepared as described in (Aizel, K. et al. Integrated conformational and lipid-sensing regulation of endosomal ArfGEF BRAG2. PLOS Biol 11, e1001652 (2013)) and extruded at 0.2 μm. For the Arf GEF specificity studies, liposomes contained 48% phosphatidylcholine (PC), 20% phosphatidylethanolamine (PE), 30% phosphatidylserine (PS) and 2% phosphatidylinositol-4,5-bisphosphate (PIP2). For Rac activation assay, liposomes contained 43% PC, 20% PE, 10% PS, 20% cholesterol, 2% PIP2, 5% NiNTA lipids and 0.2% NBD-PE. To exclude aggregation or disruption of the liposomes, their size distribution was controlled before and after experiments by dynamic light scattering as described in (Benabdi, S. et al. Biochemistry 56, 5125-5133 (2017)). Dose-response and flotation assays were carried out with liposomes containing 37.9% PC, 20% PE, 20% PS, 2% PIP2, 20% cholesterol and 0.1% NBD-PE. Flotation assays were carried out as in 18.
Nucleotide exchange kinetics were monitored by tryptophan fluorescence with excitation/emission wavelengths of 292/340 nm using a Cary Eclipse fluorimeter (Varian) at 37° C. and under continuous stirring as described in ^50,51. […]

- Effect on ArfGEF activity on liposomes: no effect
Compound: Cc1ccc2oc(C(F)(F)F)cc(=O)c2c1[N+](=O)[O-] [Bragsin1, 6-methyl-5-nitro-2-(trifluoromethyl)-4H-chromen-4-one]
